From ChEMBL document CHEMBL5131480, “Cinnamic acid derivatives linked to arylpiperazines as novel potent inhibitors of tyrosinase activity and melanin synthesis” (Eur J Med Chem, 2022)
One block for each compound: values may come before it. Active and inactive are the calls of the source. The rule behind the calls is not given here.

Experiments:
Mushroom tyrosinase = Mushroom tyrosinase (Agaricus bisporus, UniProt O42713+Q00024+C7FF04+C7FF05); assay: Inhibition of mushroom tyrosinase using L-DOPA as substrate preincubated with substrate for 10 mins followed by addition of enzyme and measured for 5 mins by spectrophotometric analysis
[1] = Acute toxicity in zebra fish embryos assessed as lack of heart beat at 25 to 100 uM measured after 24 hrs by stereomicroscope analysis; assay type: tissue-based, Danio rerio; conditions: zebrafish, dose 25-100 µM
[2] = biological target: Mushroom tyrosinase (Agaricus bisporus) (UniProt O42713+Q00024+C7FF04+C7FF05); assay: Potency index, ratio of kojic acid IC50 to test compound IC50 for mushroom tyrosinase by spectrophotometric analysis
[3] = Cytotoxicity against human A-375 cells assessed as cell viability at 20 uM incubated for 72 hrs by MTT assay relative to control; assay type: toxicity, cell-based; conditions: read-out: Activity
Danio rerio [4] = species on record: Danio rerio; assay: Anti-melanogenic activity against zebra fish embryos assessed as proportion of embryos with none to mild moderate decrease in melanogenesis at 50 uM measured after 48 hrs by stereomicroscope analysis relative to control; assay type: functional; design: scale not given: the % may be the effect or the level left
[5] = Acute toxicity in zebra fish embryos assessed as coagulation of fertilized eggs at 25 to 100 uM measured after 24 hrs by stereomicroscope analysis; design: species or system Danio rerio; conditions: zebrafish, dose 25-100 µM
[6] = Acute toxicity in zebra fish embryos assessed as lack of somite formation at 25 to 100 uM measured after 24 hrs by stereomicroscope analysis; design: species or system Danio rerio; conditions: zebrafish, dose 25-100 µM
[7] = Acute toxicity in zebra fish embryos assessed as lack of detachment of tail bud from yolk sac at 25 to 100 uM measured after 24 hrs by stereomicroscope analysis; design: species or system Danio rerio, Embryo; conditions: zebrafish, dose 25-100 µM
[8] = Acute toxicity in zebra fish embryos assessed as bradycardia at 25 to 100 uM measured after 48 hrs by stereomicroscope analysis; design: species or system Danio rerio; conditions: zebrafish, dose 25-100 µM
Danio rerio [9] = species on record: Danio rerio; assay: Anti-melanogenic activity against zebra fish embryos assessed as proportion of embryos showing profound decrease in melanogenesis at 50 uM measured after 48 hrs by stereomicroscope analysis relative to control; assay type: functional; design: scale not given: the % may be the effect or the level left
Danio rerio [10] = species on record: Danio rerio; assay: Anti-melanogenic activity against zebra fish embryos assessed as proportion of embryos showing profound decrease in melanogenesis at 25 uM measured after 48 hrs by stereomicroscope analysis relative to control; assay type: functional; design: scale not given: the % may be the effect or the level left
Danio rerio [11] = species on record: Danio rerio; assay: Anti-melanogenic activity against zebra fish embryos assessed as proportion of embryos showing moderate decrease in melanogenesis at 50 uM measured after 48 hrs by stereomicroscope analysis relative to control; assay type: functional; design: scale not given: the % may be the effect or the level left
Danio rerio [12] = species on record: Danio rerio; assay: Anti-melanogenic activity against zebra fish embryos assessed as proportion of embryos showing moderate decrease in melanogenesis at 25 uM measured after 48 hrs by stereomicroscope analysis relative to control; assay type: functional; design: scale not given: the % may be the effect or the level left
Danio rerio [13] = species on record: Danio rerio; assay: Anti-melanogenic activity against zebra fish embryos assessed as proportion of embryos with none to mild moderate decrease in melanogenesis at 25 uM measured after 48 hrs by stereomicroscope analysis relative to control; assay type: functional; design: scale not given: the % may be the effect or the level left
in vitro [14] = conditions: human, A-375 cells
Description: Cytotoxicity against human A-375 cells assessed as reduction in cell viability incubated for 72 hrs by MTT assay

[15] = biological target: T1, Tyrosinase (Homo sapiens) (UniProt P14679); assay: Inhibition of tyrosinase activity in alpha-MSH stimulated human A-375 cells using L-DOPA as substrate at 20 uM by microplate reader analysis relative to control; assay type: cell-based
T1 sequence (whole entry): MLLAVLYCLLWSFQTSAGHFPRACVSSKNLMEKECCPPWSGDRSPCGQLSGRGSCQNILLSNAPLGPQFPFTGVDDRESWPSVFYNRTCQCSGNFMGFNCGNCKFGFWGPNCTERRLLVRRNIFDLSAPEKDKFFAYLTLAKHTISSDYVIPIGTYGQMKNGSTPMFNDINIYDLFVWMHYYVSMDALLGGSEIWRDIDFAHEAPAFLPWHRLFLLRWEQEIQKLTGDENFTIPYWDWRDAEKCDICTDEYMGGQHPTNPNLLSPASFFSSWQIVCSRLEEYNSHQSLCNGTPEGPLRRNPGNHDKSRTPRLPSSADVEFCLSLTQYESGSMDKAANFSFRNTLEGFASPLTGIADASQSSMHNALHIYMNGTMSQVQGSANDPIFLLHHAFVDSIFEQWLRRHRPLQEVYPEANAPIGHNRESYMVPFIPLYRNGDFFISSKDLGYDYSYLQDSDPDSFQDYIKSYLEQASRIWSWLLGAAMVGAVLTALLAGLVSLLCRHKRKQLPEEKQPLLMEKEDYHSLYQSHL

[16] = Acute toxicity in zebra fish embryos assessed as coagulation of fertilized eggs measured at 25 to 100 uM measured after 24 to 48 hrs by stereomicroscope analysis; design: species or system Danio rerio; conditions: zebrafish, dose lower 25 µM, time lower 24 hrs, dose upper 100 µM, time upper 48 hrs
[17] = Acute toxicity in zebra fish embryos assessed as lack of somite formation at 25 to 100 uM measured after 24 to 48 hrs by stereomicroscope analysis; design: species or system Danio rerio; conditions: zebrafish, dose lower 25 µM, time lower 24 hrs, dose upper 100 µM, time upper 48 hrs
[18] = Acute toxicity in zebra fish embryos assessed as lack of detachment of tail bud from yolk sac at 25 to 100 uM measured after 24 to 48 hrs by stereomicroscope analysis; design: species or system Danio rerio, Embryo; conditions: zebrafish, dose lower 25 µM, time lower 24 hrs, dose upper 100 µM, time upper 48 hrs
[19] = Acute toxicity in zebra fish embryos assessed as lack of heart beat at 25 to 100 uM measured after 24 to 48 hrs by stereomicroscope analysis; assay type: tissue-based, Danio rerio; conditions: zebrafish, dose lower 25 µM, time lower 24 hrs, dose upper 100 µM, time upper 48 hrs
in vitro [20] = conditions: human, A-375 cells; remark: listed apart in the source
Description: Cytotoxicity against human A-375 cells assessed as cell viability at 50 uM incubated for 72 hrs by MTT assay relative to control

[21] = Acute toxicity in zebra fish embryos assessed as alteration in heart functioning at 50 uM measured after 24 hrs by stereomicroscopic analysis; assay type: tissue-based, Danio rerio; conditions: zebrafish
[22] = Acute toxicity in zebra fish embryos assessed as death of organism at 50 uM measured after 48 hrs by stereomicroscope analysis; design: species or system Danio rerio; conditions: zebrafish
[23] = Acute toxicity in zebra fish embryos assessed as pericardial edema and embryonic lethality at 50 uM measured after 24 hrs by stereomicroscopic analysis; design: species or system Danio rerio; conditions: zebrafish
[24] = Acute toxicity in zebra fish embryos assessed as strong malformation embryos at 100 uM measured after 48 hrs by stereomicroscope analysis; design: species or system Danio rerio; conditions: zebrafish
[25] = biological target: T1, Tyrosinase (Homo sapiens); assay: Inhibition of tyrosinase activity in alpha-MSH stimulated human A-375 cells using L-DOPA as substrate at 20 uM by microplate reader analysis; assay type: cell-based
[26] = Acute toxicity in zebra fish embryos assessed as death of organism measured at 25 to 100 uM measured after 24 hrs by stereomicroscope analysis; design: species or system Danio rerio; conditions: zebrafish, dose 25-100 µM
[27] = Acute toxicity in zebra fish embryos assessed as bradycardia at 25 to 100 uM measured after 24 hrs by stereomicroscope analysis; design: species or system Danio rerio; conditions: zebrafish, dose 25-100 µM
[28] = Acute toxicity in zebra fish embryos assessed as strong malformation embryos at 25 to 100 uM measured after 48 hrs by stereomicroscope analysis; design: species or system Danio rerio; conditions: zebrafish, dose 25-100 µM

SMILES: O=C(/C=C/c1cccc([N+](=O)[O-])c1)N1CCN(c2ccc(F)cc2)CC1
IC50 (Mushroom tyrosinase): 23.32 µM

SMILES: O=C(/C=C/c1ccc(Cl)cc1)N1CCN(c2ccc(F)c(Cl)c2)CC1
Activity [1]: Non-Toxic
Ratio IC50 [2]: 30
IC50 (Mushroom tyrosinase): 0.33 µM
viability at 72 h, 20 µM [3]: 98%
Activity (Danio rerio [4]): 95%
Activity [5]: Non-Toxic
Activity [6]: Non-Toxic
Activity [7]: Non-Toxic
Activity [8]: Toxic
Activity (Danio rerio [9]): 0%
Activity (Danio rerio [10]): 0%
Activity (Danio rerio [11]): 5%
Activity (Danio rerio [12]): 0%
Activity (Danio rerio [13]): 0%
GI50 at 72 h (in vitro [14]): 43.8 µM

SMILES: O=C(/C=C/c1ccc2c(c1)OCO2)N1CCN(c2cccc(Cl)c2)CC1
IC50 (Mushroom tyrosinase): 34.25 µM

SMILES: COc1ccc(/C=C/C(=O)N2CCN(c3ccc(F)c(Cl)c3)CC2)cc1[N+](=O)[O-]
Ratio IC50 [2]: 30
IC50 (Mushroom tyrosinase): 0.51 µM
viability at 72 h, 20 µM [3]: 98%
inhibition [15]: 60%
Activity (Danio rerio [4]): 45%
Activity [16]: Non-Toxic
Activity [17]: Non-Toxic
Activity [18]: Non-Toxic
Activity [19]: Non-Toxic
Activity (Danio rerio [9]): 10%
Activity (Danio rerio [10]): 15%
Activity (Danio rerio [11]): 45%
Activity (Danio rerio [12]): 60%
Activity (Danio rerio [13]): 25%
GI50 at 72 h (in vitro [14]): > 50 µM
viability at 72 h, 50 µM (in vitro [20]): 93.5%

SMILES: COc1ccc(/C=C/C(=O)N2CCN(c3ccc(F)c(Cl)c3)CC2)cc1N
Ratio IC50 [2]: 30
IC50 (Mushroom tyrosinase): 0.53 µM
viability at 72 h, 20 µM [3]: 45%
Activity (Danio rerio [4]): 50%
Activity [16]: Non-Toxic
Activity [17]: Non-Toxic
Activity [18]: Non-Toxic
Activity [19]: Non-Toxic
Activity (Danio rerio [9]): 30%
Activity (Danio rerio [10]): 0%
Activity (Danio rerio [11]): 20%
Activity (Danio rerio [12]): 20%
Activity (Danio rerio [13]): 80%
GI50 at 72 h (in vitro [14]): 16.1 µM

SMILES: COc1ccc(Cl)cc1/C=C/C(=O)N1CCN(c2ccc(F)c(Cl)c2)CC1
Activity [21]: 95%
Activity [1]: Non-Toxic
Ratio IC50 [2]: 30
IC50 (Mushroom tyrosinase): 0.46 µM
viability at 72 h, 20 µM [3]: 98%
Activity [5]: Non-Toxic
Activity [6]: Non-Toxic
Activity [7]: Non-Toxic
Activity [8]: Toxic
Activity [22]: Toxic
Activity [23]: 5%
GI50 at 72 h (in vitro [14]): > 50 µM
viability at 72 h, 50 µM (in vitro [20]): 72.6%

SMILES: O=C(/C=C/c1cccc([N+](=O)[O-])c1)N1CCN(c2ccc(F)c(Cl)c2)CC1
Activity [1]: Non-Toxic
Ratio IC50 [2]: 30
IC50 (Mushroom tyrosinase): 0.16 µM
viability at 72 h, 20 µM [3]: 98%
Activity (Danio rerio [4]): 85%
Activity [5]: Non-Toxic
Activity [6]: Non-Toxic
Activity [7]: Non-Toxic
Activity [24]: 6.6%
Activity (Danio rerio [9]): 0%
Activity (Danio rerio [10]): 0%
Activity (Danio rerio [11]): 15%
Activity (Danio rerio [12]): 0%
Activity (Danio rerio [13]): 100%
GI50 at 72 h (in vitro [14]): > 50 µM
viability at 72 h, 50 µM (in vitro [20]): 87.2%

SMILES: O=C(/C=C/c1ccc(Cl)cc1)N1CCN(c2ccc(F)cc2)CC1
IC50 (Mushroom tyrosinase): 14.09 µM

SMILES: COc1cccc(/C=C/C(=O)N2CCN(c3ccc(F)c(Cl)c3)CC2)c1Cl
Activity [1]: Toxic
Ratio IC50 [2]: 150
IC50 (Mushroom tyrosinase): 0.12 µM
viability at 72 h, 20 µM [3]: 98%
inhibition [25]: Active
Activity (Danio rerio [4]): 50%
Activity [26]: Toxic
Activity (Danio rerio [9]): 20%
Activity (Danio rerio [10]): 0%
Activity (Danio rerio [11]): 30%
Activity (Danio rerio [12]): 15%
Activity (Danio rerio [13]): 85%
GI50 at 72 h (in vitro [14]): > 50 µM
viability at 72 h, 50 µM (in vitro [20]): 69.6%

SMILES: COc1cccc(/C=C/C(=O)N2CCN(c3ccc(F)cc3)CC2)c1
IC50 (Mushroom tyrosinase): 9.96 µM

SMILES: COc1cccc(/C=C/C(=O)N2CCN(c3ccc(F)c(Cl)c3)CC2)c1
Ratio IC50 [2]: 30
IC50 (Mushroom tyrosinase): 0.25 µM
viability at 72 h, 20 µM [3]: 98%
inhibition [25]: Active
Activity (Danio rerio [4]): 100%
Activity [16]: Non-Toxic
Activity [17]: Non-Toxic
Activity [18]: Non-Toxic
Activity [19]: Non-Toxic
Activity (Danio rerio [9]): 0%
Activity (Danio rerio [10]): 0%
Activity (Danio rerio [11]): 0%
Activity (Danio rerio [12]): 0%
Activity (Danio rerio [13]): 100%
GI50 at 72 h (in vitro [14]): > 50 µM
viability at 72 h, 50 µM (in vitro [20]): 54%

SMILES: O=C(/C=C/c1ccc([N+](=O)[O-])cc1)N1CCN(c2ccc(F)c(Cl)c2)CC1
Ratio IC50 [2]: 30
IC50 (Mushroom tyrosinase): 0.35 µM
viability at 72 h, 20 µM [3]: 98%
Activity [27]: Toxic
Activity [28]: 13.3%
GI50 at 72 h (in vitro [14]): > 50 µM
viability at 72 h, 50 µM (in vitro [20]): 85.4%

The next lines start with the values.

IC50 (Mushroom tyrosinase): 55.64 µM
SMILES: COc1ccc(/C=C/C(=O)N2CCN(Cc3ccccc3)CC2)cc1N

IC50 (Mushroom tyrosinase): 6.84 µM
SMILES: COc1ccc(/C=C/C(=O)N2CCN(c3ccc(F)c(F)c3)CC2)cc1N

IC50 (Mushroom tyrosinase): > 100 µM
SMILES: COc1ccc(/C=C/C(=O)N2CCN(c3cccc(F)c3)CC2)cc1N

IC50 (Mushroom tyrosinase): 15.47 µM
SMILES: COc1ccc(/C=C/C(=O)N2CCN(c3ccc(F)c(F)c3)CC2)cc1[N+](=O)[O-]

IC50 (Mushroom tyrosinase): 27.4 µM
SMILES: COc1ccc(Cl)cc1/C=C/C(=O)N1CCN(c2ccc(F)cc2)CC1

IC50 (Mushroom tyrosinase): 17.85 µM
SMILES: COc1ccc(/C=C/C(=O)N2CCN(c3ccc(F)cc3)CC2)cc1N
